The structures appear in SMILES notation. Square brackets hold non-standard residues; d marks the D form. Peptide text beside a SMILES is read from it. βAla = NCCC(=O)O

Experiment [1] is described as follows: Inhibition of MERS-CoV MPro. The arrangement: species or system Middle East respiratory syndrome-related coronavirus.
The subject of experiment [2] is SARS-CoV-2. The format is functional, organism-based. As to conditions: Severe acute respiratory syndrome coronavirus 2.
In experiment [3] the test system is Middle East respiratory syndrome-related coronavirus. Put plainly: Antiviral activity against MERS-CoV infected in human Huh-7 cells assessed as reduction of viral growth. It counts as functional, organism-based.
Experiment [4] concerns SARS-CoV-2. The experiment can be described thus: microbe, parasite or virus in culture. As to conditions: Severe acute respiratory syndrome coronavirus 2.
Experiment [5] deals with SARS-CoV-2. Put plainly: microbe, parasite or virus in culture. Conditions: Severe acute respiratory syndrome coronavirus 2. The source holds these as a separate data set.
Experiment [6] deals with SARS-CoV-2. It counts as functional, organism-based. As to conditions: Severe acute respiratory syndrome coronavirus 2, HPAEpiC.
Experiment [7] deals with SARS-CoV-2. The format is functional, organism-based. As to conditions: Severe acute respiratory syndrome coronavirus 2, Huh-7.
Experiment [8] deals with Replicase polyprotein 1ab (Severe acute respiratory syndrome-related coronavirus, UniProt P0C6X7). The experiment can be described thus: Binding affinity to SARS-CoV-1 MPro assessed as inhibition constant.
Experiment [9] is described as follows: Inhibition of HCoV-229E MPro. The arrangement: species or system Human coronavirus 229E.
Experiment [10] concerns Middle East respiratory syndrome-related coronavirus. It counts as functional, organism-based, Vero E6. As to conditions: Vero C1008.
For experiment [11] the test system is unchanged. Put plainly: Antiviral activity against MERS-CoV assessed as inhibition of viral growth by cell-cell fusion assay. It counts as functional, organism-based.
For experiment [12], the system named is Human coronavirus OC43. The experiment can be described thus: Antiviral activity against HCoV-OC43 infected in human Huh-7 cells assessed as reduction of viral growth. As to conditions: Betacoronavirus 1, Huh-7. It counts as functional, organism-based.
Experiment [13] concerns the target Replicase polyprotein 1ab (Severe acute respiratory syndrome coronavirus 2, UniProt P0DTD1). The experiment can be described thus: Inhibition of SARS-CoV-2 MPro.

Usually IC50 stands for the point on the concentration scale where inhibition reaches its midpoint. In experiment [1], `CC(C)(C)OC(=O)Nc1cccn([C@@H](CC2CC2)C(=O)N[C@@H](C[C@@H]2CCNC2=O)C(=O)C(=O)NCc2ccccc2)c1=O` came in with an IC50 of 580 nM.

In experiment [2], `NC1(C(=O)N[C@@H](CCO)c2ccc(Cl)cc2)CCN(c2nc[nH]c3nccc2-3)CC1` [CAPIVASERTIB] came in with a half-maximal inhibitory concentration (IC50) of 2330 nM.

As usually defined, the EC50 is the concentration giving half of the maximal effect. In the case of `CC[C@H](C)[C@H](N)C(=O)N[C@@H](CCC(=O)O)C(=O)N[C@@H](CCC(=O)O)C(=O)N[C@H](C(=O)N[C@@H](CO)C(=O)N[C@@H](CCCCN)C(=O)N[C@@H](CCCCN)C(=O)N[C@H](C(=O)N[C@@H](CCC(=O)O)C(=O)N[C@@H](CCC(=O)O)C(=O)N[C@H](C(=O)N[C@@H](CO)C(=O)N[C@@H](CCCCN)C(=O)N[C@@H](CCCCN)C(=O)N[C@H](C(=O)N[C@@H](CCC(=O)O)C(=O)N[C@@H](CCC(=O)O)C(=O)N[C@H](C(=O)N[C@@H](CO)C(=O)N[C@@H](CCCCN)C(=O)N[C@@H](CCCCN)C(=O)N[C@H](C(=O)N[C@@H](CCC(=O)O)C(=O)N[C@@H](CCC(=O)O)C(=O)N[C@H](C(=O)N[C@@H](CO)C(=O)N[C@@H](CCCCN)C(=O)N[C@@H](CCCCN)C(=O)N[C@H](C(=O)N[C@@H](CCC(=O)O)C(=O)N[C@@H](CCC(=O)O)C(=O)N[C@H](C(=O)N[C@@H](CO)C(=O)N[C@@H](CCCCN)C(=O)N[C@@H](CCCCN)C(=O)NCCC(=O)N[C@@H](CCCCN)C(=O)O)[C@@H](C)CC)[C@@H](C)CC)[C@@H](C)CC)[C@@H](C)CC)[C@@H](C)CC)[C@@H](C)CC)[C@@H](C)CC)[C@@H](C)CC)[C@@H](C)CC` (H-IEEISKKIEEISKKIEEISKKIEEISKKIEEISKK[βAla]K-OH), the EC50 in experiment [3] turned out to be 100 nM.

In experiment [4], `CC(=O)N[C@@H]1[C@H](Oc2c3cc4cc2Oc2ccc(cc2Cl)[C@@H](O[C@@H]2O[C@@H](CO)[C@@H](O)[C@H](O)[C@@H]2NC(C)=O)[C@@H]2NC(=O)[C@H](NC(=O)[C@@H]4NC(=O)[C@H]4NC(=O)[C@@H](Cc5ccc(c(Cl)c5)O3)NC(=O)[C@H](N)c3ccc(O)c(c3)Oc3cc(O)cc4c3)c3ccc(O)c(c3)-c3c(O[C@H]4O[C@H](CO)[C@@H](O)[C@@H](O)[C@@H]4O)cc(O)cc3[C@@H](C(=O)O)NC2=O)O[C@@H](CO)[C@@H](O)[C@@H]1O` registered an IC50 of 1600 nM.

For the compound `CN(C)C(=O)COC(=O)Cc1ccc(OC(=O)c2ccc(NC(=N)N)cc2)cc1` [CAMOSTAT], a half-maximal response in experiment [5] (EC50) required 700 nM.

Turning to `CC1(C)[C@@H]2[C@@H](C(=O)N[C@H](C=O)C[C@@H]3CCNC3=O)N(C(=O)COc3ccc(OC(F)(F)F)cc3)C[C@@H]21`, the 50% effective concentration (EC50) in experiment [6] was determined as 1.2 nM; in [7], 35.3 nM.

As usually defined, the Ki is the dissociation constant of the complex between target and ligand, obtained from inhibition or displacement. For `COc1cccc2[nH]c(C(=O)N[C@@H](CC(C)C)C(=O)N[C@@H](C[C@@H]3CCNC3=O)C(=O)CO)cc12` [PF-00835231], the Ki in experiment [8] turned out to be 4.94 nM. In experiment [9], this compound gave an IC50 of 4 nM.

Turning to `CC[C@H](C)[C@H](NC(=O)[C@H](Cc1ccc(O)cc1)NC(=O)[C@H](CO)NC(=O)[C@H](CCC(=O)O)NC(=O)[C@H](CC(N)=O)NC(=O)[C@H](CC(C)C)NC(=O)[C@H](C)NC(=O)[C@H](CCCCN)NC(=O)[C@@H](NC(=O)[C@@H](NC(=O)[C@H](CCC(N)=O)NC(=O)[C@H](CCC(N)=O)NC(=O)[C@H](CC(C)C)NC(=O)[C@H](CO)NC(=O)[C@H](CC(C)C)NC(=O)[C@H](CCSC)NC(=O)[C@H](CCC(=O)O)NC(=O)[C@H](Cc1ccc(O)cc1)NC(=O)[C@@H](NC(=O)[C@H](CC(C)C)NC(=O)[C@H](CC(=O)O)NC(=O)[C@H](CC(C)C)NC(=O)[C@H](CC(C)C)NC(=O)[C@@H](NC(=O)[C@@H](NC(=O)[C@H](CC(N)=O)NC(=O)[C@@H](NC(=O)[C@H](CCC(N)=O)NC(=O)[C@@H](NC(=O)[C@H](CC(C)C)NC(=O)[C@@H](N)CO)[C@@H](C)O)[C@@H](C)CC)[C@@H](C)O)[C@@H](C)O)[C@@H](C)O)C(C)C)C(C)C)C(=O)N[C@@H](CC(=O)O)C(=O)N[C@@H](CC(C)C)C(=O)N[C@@H](CCCCN)C(=O)N[C@@H](CCCCN)C(=O)N[C@@H](CCC(=O)O)C(=O)N[C@@H](CC(C)C)C(=O)O`, the IC50 came out at 600 nM in experiment [10] and 500 nM in [11].

`COc1cccc2[nH]c(C(=O)N[C@@H](CC(C)C)C(=O)N[C@@H](C[C@@H]3CCCNC3=O)C(=O)COC(=O)c3c(C)cc(C)nc3C)cc12`: the EC50 in [12] stood at 90 nM.

In turn, `O=C[C@H](C[C@@H]1CCNC1=O)NC(=O)[C@H](Cc1ccccc1)NC(=O)c1cc2ccccc2[nH]1` yielded an IC50 in [13] of 34 nM.
